Experimental data published in the Kinase Knowledgebase extract (Sharma et al. 2016).

Each molecule was assayed against EGFR (Balb/c mice) (UniProt P00533). Details: balb/mk cells.

IC50, 0.1 to 1 µM:
Clc1cccc(Nc2ncnc3[nH]c(-c4ccc(NCc5ccccc5)cc4)cc23)c1, C[C@@H](Nc1ncnc2[nH]c(-c3ccc(NS(C)(=O)=O)cc3)cc12)c1ccccc1, COc1ccc(-c2csc(-c3cc4c(Nc5cccc(Cl)c5)ncnc4[nH]3)n2)cc1, CN(C)C=Nc1ccc(-c2cc3c(Nc4cccc(Cl)c4)ncnc3[nH]2)cc1, CN1CCN(C(=O)c2ccc(-c3cc4c(Nc5cccc(Cl)c5)ncnc4[nH]3)cc2)CC1, C[C@@H](Nc1ncnc2[nH]c(-c3cccc(NCc4ccccc4)c3)cc12)c1ccccc1, OCCN(CCO)Cc1cc2c(Nc3cccc(Cl)c3)ncnc2[nH]1, COc1cc(-c2cc3c(Nc4cccc(Cl)c4)ncnc3[nH]2)ccc1OCc1ccccc1, COC(=O)Nc1ccc(-c2cc3c(Nc4cccc(Cl)c4)ncnc3[nH]2)cc1, CC(C)S(=O)(=O)Nc1ccc(-c2cc3c(Nc4cccc(Cl)c4)ncnc3[nH]2)cc1, O=S(=O)(Nc1ccc(-c2cc3c(Nc4cccc(Cl)c4)ncnc3[nH]2)cc1)c1ccccc1, CN(C)C=Nc1cccc(-c2cc3c(Nc4cccc(Cl)c4)ncnc3[nH]2)c1, COc1cc(-c2cc3c(Nc4cccc(C)c4)ncnc3[nH]2)ccc1OCc1ccccc1, COc1cc(-c2cc3c(Nc4cccc(Cl)c4)ncnc3[nH]2)ccc1O, CNC(=S)Nc1cccc(-c2cc3c(N[C@H](C)c4ccccc4)ncnc3[nH]2)c1, CCNC(=O)Nc1ccc(-c2cc3c(N[C@H](C)c4ccccc4)ncnc3[nH]2)cc1, O=C(Nc1ccccc1)Nc1cccc(-c2cc3c(Nc4cccc(Cl)c4)ncnc3[nH]2)c1, COc1cc(-c2cc3c(Nc4cccc(C)c4)ncnc3[nH]2)ccc1O, NC(=S)c1cc2c(Nc3cccc(Cl)c3)ncnc2[nH]1, CC(C)S(=O)(=O)Nc1cccc(-c2cc3c(Nc4cccc(Cl)c4)ncnc3[nH]2)c1, O=C(c1cc2c(Nc3cccc(Cl)c3)ncnc2[nH]1)N1CCOCC1, COc1ccc(-c2cc3c(N[C@H](C)c4ccccc4)ncnc3[nH]2)cc1, CCS(=O)(=O)Nc1ccc(-c2cc3c(Nc4cccc(Cl)c4)ncnc3[nH]2)cc1, CC(C)C(=Nc1ccc(-c2cc3c(Nc4cccc(Cl)c4)ncnc3[nH]2)cc1)N(C)C, Clc1cccc(Nc2ncnc3[nH]c(-c4cccc(N=CN5CCOCC5)c4)cc23)c1, CCS(=O)(=O)Nc1cccc(-c2cc3c(N[C@H](C)c4ccccc4)ncnc3[nH]2)c1, CN1CCN(C=Nc2ccc(-c3cc4c(Nc5cccc(Cl)c5)ncnc4[nH]3)cc2)CC1, CC(C)S(=O)(=O)Nc1ccc(-c2cc3c(N[C@H](C)c4ccccc4)ncnc3[nH]2)cc1, CC(C)OC(=O)Nc1ccc(-c2cc3c(Nc4cccc(Cl)c4)ncnc3[nH]2)cc1, C[C@@H](Nc1ncnc2[nH]c(-c3cccc(N=CN(C)C)c3)cc12)c1ccccc1, CS(=O)(=O)Nc1cccc(-c2cc3c(Nc4cccc(Cl)c4)ncnc3[nH]2)c1, CCN(C=Nc1ccc(-c2cc3c(Nc4cccc(Cl)c4)ncnc3[nH]2)cc1)CC, CN1CCN(Cc2cc3c(Nc4cccc(Cl)c4)ncnc3[nH]2)CC1, O=C(Nc1ccc(-c2cc3c(Nc4cccc(Cl)c4)ncnc3[nH]2)cc1)c1cccs1, CC(C)COC(=O)Nc1ccc(-c2cc3c(Nc4cccc(Cl)c4)ncnc3[nH]2)cc1, Oc1ccc(CNCc2cc3c(Nc4cccc(Cl)c4)ncnc3[nH]2)cc1, Clc1cccc(Nc2ncnc3[nH]c(-c4ccc(N=CN5CCOCC5)cc4)cc23)c1, CN1CCN(C(=O)c2cc3c(Nc4cccc(Cl)c4)ncnc3[nH]2)CC1, CCNC(=O)Nc1cccc(-c2cc3c(Nc4cccc(Cl)c4)ncnc3[nH]2)c1, Clc1cccc(Nc2ncnc3[nH]c(CN4CCOCC4)cc23)c1, Clc1cccc(Nc2ncnc3[nH]c(-c4nccs4)cc23)c1, COc1cc(-c2cc3c(Nc4ccccc4)ncnc3[nH]2)ccc1O, O=C(Nc1ccc(-c2cc3c(Nc4cccc(Cl)c4)ncnc3[nH]2)cc1)c1ccco1, CNC(=S)Nc1cccc(-c2cc3c(Nc4cccc(Cl)c4)ncnc3[nH]2)c1, CC(C)S(=O)(=O)Nc1cccc(-c2cc3c(N[C@H](C)c4ccccc4)ncnc3[nH]2)c1, OCc1ccc(-c2cc3c(Nc4cccc(Cl)c4)ncnc3[nH]2)cc1, Clc1cccc(Nc2ncnc3[nH]c(-c4nnn[nH]4)cc23)c1, C[C@@H](Nc1ncnc2[nH]c(-c3cccc(NS(C)(=O)=O)c3)cc12)c1ccccc1, Cn1nnc(-c2cc3c(Nc4cccc(Cl)c4)ncnc3[nH]2)n1.Cn1nnnc1-c1cc2c(Nc3cccc(Cl)c3)ncnc2[nH]1
